Patent US6914045B2, “Glycopeptide antibiotics” (Wyeth Holdings Corporation, priority 2001, dated 2005)
Values after ≈ are worked out from the molar mass of the structure shown. Numbered stars: 1 amine (or outer) side, 2 acyl side, 3 side chain; on linkers, the order of the positions; unused ones are H or OH. Square brackets hold non-standard residues; d marks the D form. Peptide text beside a SMILES is read from it. * marks the point of attachment. ξ: configuration not given here. X1 = N=C1NCC(C(O)C(N[*:1])C(=O)[*:2])N1C1OC(CO)C(O)C(O)C1O; ξEnduracididine(βξ-OH,4'ξ) = N=C1NCC(C(O)C(N)C(=O)O)N1; X2 = OCC1OC(OC2C(CO)OC(*)C(O)C2O)C(O)C(O)C1O

Tests used:
Assay in all cases: in vitro antibacterial evaluation, MIC by broth dilution
Assay type in all cases: cell-based
[1] = test system: Enterococcus sp.; details: broth dilution, 18 hours at 35° C.
Outline: (§1)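 Inoculum 5×10^5 CFU/mL; concentrations 64 to 0.06 μg/mL; MIC defined as lowest inhibitory level. Conducted by broth dilution under NCCLS guidelines.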

[2] = test system: Staphylococcus sp.; details: broth dilution, 18 hours at 35° C.
Outline: as §1

[3] = test system: Streptococcus sp.; details: broth dilution, 18 hours at 35° C.
Outline: as §1

[4] = test system: Escherichia coli; details: 18 hours at 35° C.
Outline: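 Read-out: the lowest concentration at which the test strain fails to grow. Serial dilutions (64-0.06 μg/mL) in Muller-Hinton II […], 5×10^5 CFU/mL inoculum, NCCLS M7-A2 procedure.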

N=C1NCC(C(O)C2NC(=O)C(Cc3ccc(OC4OC(CO)C(OC5OC(CO)C(O)C(O)C5O)C(O)C4O)cc3)NC(=O)C(Cc3ccccc3)NC(=O)CNC(=O)C(CO)NC(=O)C(C(O)C3CNC(=N)N3C3OC(CO)C(O)C(O)C3O)NC2=O)N1 (stereo not drawn) [Example 282, Cyclo[glycylphenylalanyl-O-(4-O-hexopyranosylhexopyranosyl)tyrosyl-3-(2-iminomidazolidin-4-yl)seryl-3-(3-hexopyranosyl-2-iminoimidazolidin-4-yl)serylseryl]] (cyclo(GFY(X2)[ξEnduracididine(βξ-OH,4'ξ)][X1]S); configuration not given here)
MIC Enterococcus avium (GC 4558) ([1]; Enterococcus avium (GC 4558)): 128 µg/mL (≈ 99.9 µM)
MIC Enterococcus faecalis (ATCC 29212) ([1]; Enterococcus faecalis (ATCC 29212)): >128 µg/mL
MIC Enterococcus faecalis (GC 4553) ([1]; Enterococcus faecalis (GC 4553)): >128 µg/mL
MIC Enterococcus faecalis (GC 4554) ([1]; Enterococcus faecalis (GC 4554)): >128 µg/mL
MIC Enterococcus faecalis (GC 6189) ([1]; Enterococcus faecalis (GC 6189)): >128 µg/mL
MIC Enterococcus faecium (GC 2243) ([1]; Enterococcus faecium (GC 2243)): >128 µg/mL
MIC Enterococcus faecium (GC 4556) ([1]; Enterococcus faecium (GC 4556)): >128 µg/mL
MIC Enterococcus faecium (GC 4557) ([1]; Enterococcus faecium (GC 4557)): 128 µg/mL (≈ 99.9 µM)
MIC Enterococcus faecalis (ATCC 29212) ([1]; strain ATCC 29212): >128 µg/mL
MIC Enterococcus faecalis (GC 2242) ([1]; strain GC 2242): >128 µg/mL
MIC Enterococcus faecium (GC 2243) ([1]; strain GC 2243): >128 µg/mL
MIC Enterococcus faecalis (GC 2691) ([1]; strain GC 2691): >128 µg/mL
MIC Enterococcus faecalis (GC 3059) ([1]; strain GC 3059): >128 µg/mL
MIC Enterococcus faecalis (GC 4552) ([1]; strain GC 4552): >128 µg/mL
MIC Enterococcus faecalis (GC 4553) ([1]; strain GC 4553): >128 µg/mL
MIC Enterococcus faecalis (GC 4554) ([1]; strain GC 4554): >128 µg/mL
MIC Enterococcus faecium (GC 4556) ([1]; strain GC 4556): >128 µg/mL
MIC Enterococcus faecium (GC 4557) ([1]; strain GC 4557): 128 µg/mL (≈ 99.9 µM)
MIC Enterococcus avium (GC 4558) ([1]; strain GC 4558): 128 µg/mL (≈ 99.9 µM)
MIC Enterococcus faecalis (GC 6189) ([1]; strain GC 6189): >128 µg/mL
MIC Coagulase Negative Staphylococcus (GC 4547) [2]: >128 µg/mL
MIC Coagulase Negative Staphylococcus (GC 4548) [2]: >128 µg/mL
MIC Coagulase Negative Staphylococcus (GC 4549) [2]: >128 µg/mL
MIC Coagulase Negative Staphylococcus (GC 4551) [2]: >128 µg/mL
MIC Staphylococcus aureus (ATCC 29213) [2]: >128 µg/mL
MIC Staphylococcus aureus (GC 1131) [2]: >128 µg/mL
MIC Staphylococcus aureus (GC 3051) [2]: >128 µg/mL
MIC Staphylococcus aureus (GC 3053) [2]: >128 µg/mL
MIC Staphylococcus aureus (GC 4541) [2]: >128 µg/mL
MIC Staphylococcus aureus (GC 4542) [2]: >128 µg/mL
MIC Staphylococcus aureus (GC 4544) [2]: >128 µg/mL
MIC Staphylococcus aureus (GC 4545) [2]: >128 µg/mL
MIC Staphylococcus aureus-SMITH (GC 4543) [2]: >128 µg/mL
MIC Staphylococcus haemolyticus (GC 4546) [2]: >128 µg/mL
MIC Staphylococcus aureus (ATCC 29213) ([2]; strain ATCC 29213): >128 µg/mL
MIC Staphylococcus aureus (GC 1131) ([2]; strain GC 1131): >128 µg/mL
MIC Staphylococcus aureus (GC 3051) ([2]; strain GC 3051): >128 µg/mL
MIC Staphylococcus aureus (GC 3053) ([2]; strain GC 3053): >128 µg/mL
MIC Staphylococcus aureus (GC 4541) ([2]; strain GC 4541): >128 µg/mL
MIC Staphylococcus aureus (GC 4542) ([2]; strain GC 4542): >128 µg/mL
MIC Staphylococcus aureus (GC 4544) ([2]; strain GC 4544): >128 µg/mL
MIC Staphylococcus aureus (GC 4545) ([2]; strain GC 4545): >128 µg/mL
MIC Staphylococcus haemolyticus (GC 4546) ([2]; strain GC 4546): >128 µg/mL
MIC Coagulase Negative Staphylococcus (GC 4547) ([2]; strain GC 4547): >128 µg/mL
MIC Coagulase Negative Staphylococcus (GC 4548) ([2]; strain GC 4548): >128 µg/mL
MIC Coagulase Negative Staphylococcus (GC 4549) ([2]; strain GC 4549): >128 µg/mL
MIC Coagulase Negative Staphylococcus (GC 4551) ([2]; strain GC 4551): >128 µg/mL
MIC Staphylococcus aureus-SMITH (GC 4543) ([2]; strain SMITH GC 4543): >128 µg/mL
MIC Streptococcus pneumoniae (ATCC 6301) ([3]; strain ATCC 6301): 128 µg/mL (≈ 99.9 µM)
MIC Streptococcus pneumoniae (GC 1894) ([3]; strain GC 1894): 128 µg/mL (≈ 99.9 µM)
MIC Streptococcus pyogenes (GC 4563) ([3]; strain GC 4563): >128 µg/mL
MIC Streptococcus agalactiae (GC 4564) ([3]; strain GC 4564): >128 µg/mL
MIC Streptococcus pneumoniae (GC 4565) ([3]; strain GC 4565): >128 µg/mL
MIC Escherichia coli (ATCC 25922) ([4]; Escherichia coli (ATCC 25922)): >128 µg/mL
MIC Escherichia coli (GC 4559) ([4]; Escherichia coli (GC 4559)): >128 µg/mL
MIC Escherichia coli (GC 4560) ([4]; Escherichia coli (GC 4560)): 128 µg/mL (≈ 99.9 µM)
